Data on 33 compounds can be found in patent US20130072523A1, “ANALOGUES FOR THE TREATMENT OR PREVENTION OF FLAVIVIRUS INFECTIONS” (VERTEX PHARMACEUTICALS INCORPORATED, priority 2009, published 2013).

This assay relates to HCV 1b genotype. Put plainly: Cell-based luciferase reporter HCV (Ib) RNA replication assay (Huh-ET replicon cells). Particulars: Hepatitis C virus, 96 h; HCV 1b genotype replicon, 4 days incubation, luciferase readout. The text has this: Cell-Based Luciferase Reporter HCV (Ib) RNA Replication Assay Cell Culture
Replicon cell lines Huh-5.2 are derived from the Huh-7 hepatocarcinoma cell line are maintained in culture as generally described in Krieger, N; Lohmann, V; Bartenschlager, R. Enhancement of hepatitis C virus RNA replication by cell culture-adaptive mutations. J. Virol. 2001, 75, 4614-4624. The Huh-5.2 cells contain the highly cell culture-adapted replicon I389 Luc-ubi-neo/NS3-375.1 construct that carries, in addition to the neomycin gene, an integrated copy to the firefly luciferase gene (Krieger, N; Lohmann, V; Bartenschlager, R. Enhancement of hepatitis C virus RNA replication by cell culture-adaptive mutations. J. Virol. 2001, 75, 4614-4624). This cell line allows measurement of HCV RNA replication and translation by measuring luciferase activity. It has been previously shown that the luciferase activity tightly follows the replicon RNA level in these cells (Krieger, N; Lohmann, V; Bartenschlager, R. Enhancement of hepatitis C virus RNA replication by cell culture-adaptive mutations. J. Virol. 2001, 75, 4614-4624). The Huh-ET cell line has the same features as those mentioned for Huh-5.2 cell line, except that ET cells are more robust and contain an adaptative mutation in the HCV NS4B gene instead of NS5A. Both cell lines are maintained in cultures at a sub-confluent level (<85%) as the level of replicon RNA is highest in actively proliferating cells. The culture media used for cell passaging consist of DMEM (Gibco BRL Laboratories, Mississauga, ON, Canada) supplemented with 10% foetal bovine serum with 1% penicilin/streptomycin, 1% glutamine, 1% sodium pyruvate, 1% non-essential amino acids, and 180 μg/ml of G418 final concentration. Cells are incubated at 37° C., in an atmosphere of 5% CO2 and passaged twice a week to maintain sub-confluence.
Approximately 3000 viable Huh-ET cells (100 μl) are plated per well in a white opaque 96-well microtiter plate. The cell culture media used for the assay is the same as described above except that it contains no G418 and no phenol red. After an incubation period of 3-4 hours at 37° C. in a 5% CO2 incubator, compounds (100 μl) are added at various concentrations. Cells are then further incubated for 4 days at 37° C. in a 5% CO2 incubator. Thereafter, the culture media is removed and cells are lysed by the addition of 95 μL of the luciferase buffer (luciferin substrate in buffered detergent). Cell lysates are incubated at room temperature and protected from direct light for at least 10 minutes. Plates are read for luciferase counts using a luminometer (Wallac MicroBeta Trilux, Perkin Elmer™, MA, USA).
The 50% inhibitory concentrations (IC50s) for inhibitory effect are determined from dose response curves using eleven concentrations per compound in duplicate. Curves are fitted to data points using nonlinear regression analysis, and IC50s are interpolated from the resulting curve using GraphPad Prism software, version 2.0 (GraphPad Software Inc., San Diego, Calif., USA).
EC50 ranges are presented in micromolar as follows: μM+++<=0.005<++<=5.0<+.
`COC(=O)N[C@H](C(=O)N1CCC[C@H]1c1ncc(C#Cc2ccc(C#Cc3cnc([C@@H]4CCCN4C(=O)[C@@H](NC(=O)OC)C(C)C)[nH]3)c3c2OCO3)[nH]1)C(C)C` [Compound 2]: the IC50 was at most 5 nM.

The compound `COC(=O)N[C@H](C(=O)N1CCC[C@H]1c1ncc(C#Cc2ccc(C#Cc3cnc([C@@H]4CCCN4C(=O)[C@@H](NC(=O)OC)C(C)C)[nH]3)s2)[nH]1)C(C)C` [Compound 3] showed an IC50 of at most 5 nM.

In turn, `[2H]c1c([2H])c(C#Cc2cnc([C@@H]3C[C@H](C)CN3C(=O)[C@@H](NC(=O)OC)C(C)C)[nH]2)c([2H])c([2H])c1C#Cc1cnc([C@@H]2C[C@H](C)CN2C(=O)[C@@H](NC(=O)OC)C(C)C)[nH]1` [Compound 5] came in with an IC50 of at most 5 nM.

The compound `COC(=O)N[C@H](C(=O)N1C[C@@H](C)C[C@H]1c1nc(C#Cc2ccc3cc(C#Cc4c[nH]c([C@@H]5C[C@H](C)CN5C(=O)[C@@H](NC(=O)OC)C(C)C)n4)ccc3c2)c[nH]1)C(C)C` [Compound 6] yielded an IC50 of at most 5 nM.

Turning to `COC(=O)N[C@H](C(=O)N1C[C@@H](C)C[C@H]1c1nc(C#Cc2ccc(C#Cc3c[nH]c([C@@H]4C[C@H](C)CN4C(=O)[C@@H](NC(=O)OC)[C@@H](C)OC)n3)cc2)c[nH]1)[C@@H](C)OC` [Compound 7], the IC50 was at most 5 nM.

In turn, `COC(=O)N[C@H](C(=O)N1C[C@@H](C)C[C@H]1c1ncc(C#Cc2cc(C)c(C#Cc3cnc([C@@H]4C[C@H](C)CN4C(=O)[C@@H](NC(=O)OC)C(C)C)[nH]3)cc2C)[nH]1)C(C)C` [Compound 8] gave a 50% inhibitory concentration (IC50) of at most 5 nM.

Turning to `COC(=O)N[C@H](C(=O)N1C[C@H](C)C[C@H]1c1nc(C#Cc2ccc(C#Cc3c[nH]c([C@@H]4C[C@@H](C)CN4C(=O)[C@@H](NC(=O)OC)C(C)C)n3)cc2)c[nH]1)C(C)C` [Compound 9], the IC50 is at most 5 nM.

`COC(=O)N[C@H](C(=O)N1C[C@@H](C)C[C@H]1c1ncc(C#Cc2cc3sc(C#Cc4cnc([C@@H]5C[C@H](C)CN5C(=O)[C@@H](NC(=O)OC)C(C)C)[nH]4)cc3s2)[nH]1)C(C)C` [Compound 10] returned an IC50 of at most 5 nM.

`COC(=O)N(C)[C@H](C(=O)N1C[C@@H](C)C[C@H]1c1ncc(C#Cc2ccc(C#Cc3cnc([C@@H]4C[C@H](C)CN4C(=O)[C@H](C(C)C)N(C)C(=O)OC)[nH]3)cc2)[nH]1)C(C)C` [Compound 11]: the IC50 was at most 5 nM.

In turn, `COC(=O)N[C@H](C(=O)N1C[C@@H](C)C[C@H]1c1ncc(C#Cc2ccc(C#Cc3cnc([C@@H]4C[C@H](C)CN4C(=O)[C@H](C(C)C)N(C)C(=O)OC)[nH]3)cc2)[nH]1)C(C)C` [Compound 12] had an IC50 of at most 5 nM.

The compound `COC(=O)N[C@H](C(=O)N1CCC[C@H]1c1nc(C#Cc2ccc(C#Cc3c[nH]c([C@@H]4CCCN4C(=O)[C@@H](NC(=O)OC)C(C)C)n3)c3ocnc23)c[nH]1)C(C)C` [Compound 13] registered a concentration for half-maximal inhibition (IC50) of at most 5 nM.

In turn, `COC(=O)N[C@H](C(=O)N1CCC[C@H]1c1nc(C#Cc2cc3sc(C#Cc4c[nH]c([C@@H]5CCCN5C(=O)[C@@H](NC(=O)OC)C(C)C)n4)cc3s2)c[nH]1)C(C)C` [Compound 14] gave an IC50 of at most 5 nM.

Compound `COC(=O)N[C@H](C(=O)N1CCC[C@H]1c1nc(C#CC#Cc2c[nH]c([C@@H]3CCCN3C(=O)[C@@H](NC(=O)OC)C(C)C)n2)c[nH]1)C(C)C` [Compound 15] gave a concentration for half-maximal inhibition (IC50) of 5 to 5000 nM.

`COC(=O)N[C@H](C(=O)N1C[C@@H](C)C[C@H]1c1nc(C#Cc2ccc(C#Cc3c[nH]c([C@@H]4C[C@H](C)CN4C(=O)[C@@H](NC(=O)OC)C(C)C)n3)c(C)c2)c[nH]1)C(C)C` [Compound 16] had an IC50 of at most 5 nM.

The compound `COC(=O)N[C@H](C(=O)N1C[C@@H](C)C[C@H]1c1nc(CCc2ccc(CCc3c[nH]c([C@@H]4C[C@H](C)CN4C(=O)[C@@H](NC(=O)OC)C(C)C)n3)cc2)c[nH]1)C(C)C` [Compound 17] gave an IC50 of 5 to 5000 nM.

In turn, `COC(=O)N[C@H](C(=O)N1C[C@@H](C)C[C@H]1c1nc(C)c(C#Cc2ccc(C#Cc3[nH]c([C@@H]4C[C@H](C)CN4C(=O)[C@@H](NC(=O)OC)C(C)C)nc3C)cc2)[nH]1)C(C)C` [Compound 18] yielded an IC50 of at most 5 nM.

In the case of `COC(=O)N[C@H](C(=O)N1CCC[C@H]1c1nc(C)c(C#Cc2ccc(C#Cc3[nH]c([C@@H]4CCCN4C(=O)[C@@H](NC(=O)OC)C(C)C)nc3C)cc2)[nH]1)C(C)C` [Compound 19], the IC50 is at most 5 nM.

With `COC(=O)N[C@H](C(=O)N1C[C@@H](C)C[C@H]1c1ncc(C#Cc2ccc(C#Cc3[nH]c([C@@H]4C[C@H](C)CN4C(=O)[C@@H](NC(=O)OC)C(C)C)nc3I)cc2)[nH]1)C(C)C` [Compound 20], the half-inhibitory concentration (IC50) was at most 5 nM.

Turning to `COC(=O)N[C@H](C(=O)N1C[C@@H](C)C[C@H]1c1nc(I)c(C#Cc2ccc(C#Cc3[nH]c([C@@H]4C[C@H](C)CN4C(=O)[C@@H](NC(=O)OC)C(C)C)nc3I)cc2)[nH]1)C(C)C` [Compound 21], the IC50 is at most 5 nM.

On to `C[C@H]1C[C@@H](c2ncc(C#Cc3ccc(C#Cc4cnc([C@@H]5C[C@H](C)CN5C(=O)OC(C)(C)C)[nH]4)cc3)[nH]2)N(C(=O)OC(C)(C)C)C1` [Compound 23], for which the half-maximal inhibitory concentration (IC50) fell in the range of 5 to 5000 nM.

In turn, `C[C@@H]1CN[C@H](c2ncc(C#Cc3ccc(C#Cc4cnc([C@@H]5C[C@H](C)CN5)[nH]4)cc3)[nH]2)C1` [Compound 24] yielded an IC50 of 5 to 5000 nM.

As for `COC(=O)N[C@H](C(=O)N1C[C@@H](C)C[C@H]1c1nc(-c2cc3sc(-c4c[nH]c([C@@H]5C[C@H](C)CN5C(=O)[C@@H](NC(=O)OC)C(C)C)n4)cc3s2)c[nH]1)C(C)C` [Compound 26], the IC50 was at most 5 nM.

The compound `COC(=O)N[C@H](C(=O)N1C[C@@H](C)C[C@@H]1c1ncc(C#Cc2ccc(C#Cc3cnc([C@@H]4C[C@@H](C)CN4C(=O)[C@@H](NC(=O)OC)C(C)C)[nH]3)cc2)[nH]1)C(C)C` [Compound 27] displayed an IC50 of 5 to 5000 nM.

On to `COC(=O)N[C@H](C(=O)N1C[C@H](C)C[C@H]1c1nc(C)c(C#Cc2ccc(C#Cc3[nH]c([C@@H]4C[C@@H](C)CN4C(=O)[C@@H](NC(=O)OC)C(C)C)nc3C)cc2)[nH]1)C(C)C` [Compound 28], for which the IC50 is at most 5 nM.

Compound `COC(=O)N[C@H](C(=O)N1C[C@@H](C)C[C@H]1c1nc(C)c(C#Cc2cc(F)c(C#Cc3[nH]c([C@@H]4C[C@H](C)CN4C(=O)[C@@H](NC(=O)OC)C(C)C)nc3C)cc2F)[nH]1)C(C)C` [Compound 29] returned a half-inhibitory concentration (IC50) of at most 5 nM.

In turn, `COC(=O)N[C@H](C(=O)N1C[C@@H](C)C[C@H]1c1nc(C)c(C#Cc2ccc(C#Cc3[nH]c([C@@H]4C[C@H](C)CN4C(=O)[C@@H](NC(=O)OC)C(C)C)nc3C)c(F)c2)[nH]1)C(C)C` [Compound 31] came in with an IC50 of at most 5 nM.

`COC(=O)N[C@@H](C(=O)N1C[C@@H](C)C[C@H]1c1ncc(C#Cc2ccc(C#Cc3cnc([C@@H]4C[C@H](C)CN4C(=O)[C@H](NC(=O)OC)C(C)C)[nH]3)cc2)[nH]1)C(C)C` [Compound 32] returned an IC50 of 5 to 5000 nM.

`COC(=O)N[C@H](C(=O)N1C[C@@H](C)C[C@H]1c1ncc(C#Cc2ccc(C#Cc3cnc([C@@H]4C[C@H](C)CN4C(=O)[C@H](NC(=O)OC)C(C)C)[nH]3)cc2)[nH]1)C(C)C` [Compound 33] had an IC50 of at most 5 nM.

`COC(=O)N[C@H](C(=O)N1C[C@@H](C)C[C@H]1c1ncc(C#Cc2ccc(C#Cc3cnc([C@@H]4C[C@H](C)CN4C(=O)[C@@H](NC(=O)OC)C(C)C)[nH]3)c(F)c2)[nH]1)C(C)C` [Compound 36] registered an IC50 of at most 5 nM.

With `COC(=O)N[C@H](C(=O)N1C[C@@H](C)C[C@H]1c1nc(C)c(C#Cc2ccc3cc(C#Cc4[nH]c([C@@H]5C[C@H](C)CN5C(=O)[C@@H](NC(=O)OC)C(C)C)nc4C)ccc3c2)[nH]1)C(C)C` [Compound 37], the IC50 is at most 5 nM.

For the compound `COC(=O)N[C@H](C(=O)N1C[C@H](C)C[C@H]1c1ncc(C#Cc2ccc(C#Cc3cnc([C@@H]4C[C@H](C)CN4C(=O)[C@@H](NC(=O)OC)C(C)C)[nH]3)cc2)[nH]1)C(C)C` [Compound 38], the IC50 is at most 5 nM.

On to `COC(=O)N[C@H](C(=O)N1C[C@@H](C)C[C@H]1c1ncc(C#Cc2ccc(C#Cc3cnc([C@@H]4C[C@H](C)CN4)[nH]3)cc2)[nH]1)C(C)C` [Compound 39], for which the half-maximal inhibitory concentration (IC50) is 5 to 5000 nM.

On to `COC(=O)N[C@H](C(=O)N1C[C@@H](C)C[C@H]1c1ncc(C#Cc2ccc(C#Cc3cnc([C@@H]4C[C@H](C)CN4C(=O)[C@@H](NC(=O)OC)C(C)C)[nH]3)c3nsnc23)[nH]1)C(C)C` [Compound 40], for which the IC50 was at most 5 nM.
